Measurements published in patent US8835124B2, “Method for treating cancer with agents that bind phosphorylated CDC27” (The Nemours Foundation, priority 2011, dated 2014).

Tests used:
[1] = target: T1, cystic fibrosis transmembrane conductance regulator (CFTR) (Homo sapiens, UniProt P13569); details: in microsomes and in intact cells; cited from earlier work
T1 construct: host or cells: microsomes and intact cells (not further described)

[2] = target: T2, Cdc27 association with p55Cdc20, APC2, APC8 (Homo sapiens, UniProt P30260); test: Co-immunoprecipitation with anti-Cdc27 antibodies; assay type: cell-based; details: DAOY, curcumin for 8 hours
T2 construct: endogenous in cells
Description: For immunoprecipitation, cells were lysed at 4° C. for 30 min in a buffer of 50 mM HEPES, pH 7.4, 150 mM NaCl 0.5% NP-40, 1 mM EDTA, 1 mM Na3VO4, 1 mM aprotinin, 1 mM leupeptin and 1 mM PMSF. Equal amounts of protein (from 0.5 to 2 mg) were incubated with Cdc27 antibody for 4 hours at 4° C. followed by protein G-Sepharose (GE Healthcare) for 2 hours, washed extensively, and analyzed by immunoblotting with indicated antibodies. For λ-phosphatase treatment, Cdc27 was immunoprecipitated as above except that phosphatase and protease inhibitors were omitted and then incubated with λ-[…]phosphatase according to the manufacturer's protocol (New England Biolabs, Ipswich, Mass.).
Proper APC/C function requires co-activator proteins such as Cdc20 or Cdh1 that may facilitate the recruitment of substrates. […] Cell lysates were subjected to immunoprecipitation with anti-Cdc27 antibodies. Immunoprecipitated proteins were immunoblotted with antibodies to APC2, APC8, p55 Cdc20 or Cdh1. Immunoblots of total cell lysates are shown to ensure equal loading. […] Under the experimental conditions used, Cdh1 was not found to be associating with Cdc27 (FIG. 8C).

[3] = tested on: NT2 and MDCK cells; test: Cell cycle progression after release from thymidine/nocodazole block; assay type: cell-based; details: different concentrations of curcumin
Description: For analysis of cell cycle profiles after mitotic block, cells were synchronized with 2 mM thymidine for 24 hours. The block was released for 3 hours and cells were arrested in prometaphase with 100 nM nocodazole for 12 hours. For G1/S arrest, cells were synchronized for 18 hours with 2 mM thymidine, released for 9 hours, followed by a second thymidine arrest for 18 hours. The block was then released in the presence of DMSO or curcumin as indicated and the cells were processed as described above.
NT2 and MDCK cells were arrested with thymidine/nocodazole treatment. […] DNA contents were analyzed for cell cycle progression. The data shown in FIG. 7 are expressed as mean±SEM of three independent experiments.

[4] = target: T3, Cdc27 (Mus musculus, UniProt A2A6Q5); test: Cdc27 immunoblot of medulloblastoma samples from treated Smo/Smo mice; assay type: in vivo; details: curcumin-treated vs corn oil control mice
T3 construct: from tissue; host or cells: medulloblastoma tumours of Smo/Smo mice
T3 sequence (A2A6Q5 whole entry): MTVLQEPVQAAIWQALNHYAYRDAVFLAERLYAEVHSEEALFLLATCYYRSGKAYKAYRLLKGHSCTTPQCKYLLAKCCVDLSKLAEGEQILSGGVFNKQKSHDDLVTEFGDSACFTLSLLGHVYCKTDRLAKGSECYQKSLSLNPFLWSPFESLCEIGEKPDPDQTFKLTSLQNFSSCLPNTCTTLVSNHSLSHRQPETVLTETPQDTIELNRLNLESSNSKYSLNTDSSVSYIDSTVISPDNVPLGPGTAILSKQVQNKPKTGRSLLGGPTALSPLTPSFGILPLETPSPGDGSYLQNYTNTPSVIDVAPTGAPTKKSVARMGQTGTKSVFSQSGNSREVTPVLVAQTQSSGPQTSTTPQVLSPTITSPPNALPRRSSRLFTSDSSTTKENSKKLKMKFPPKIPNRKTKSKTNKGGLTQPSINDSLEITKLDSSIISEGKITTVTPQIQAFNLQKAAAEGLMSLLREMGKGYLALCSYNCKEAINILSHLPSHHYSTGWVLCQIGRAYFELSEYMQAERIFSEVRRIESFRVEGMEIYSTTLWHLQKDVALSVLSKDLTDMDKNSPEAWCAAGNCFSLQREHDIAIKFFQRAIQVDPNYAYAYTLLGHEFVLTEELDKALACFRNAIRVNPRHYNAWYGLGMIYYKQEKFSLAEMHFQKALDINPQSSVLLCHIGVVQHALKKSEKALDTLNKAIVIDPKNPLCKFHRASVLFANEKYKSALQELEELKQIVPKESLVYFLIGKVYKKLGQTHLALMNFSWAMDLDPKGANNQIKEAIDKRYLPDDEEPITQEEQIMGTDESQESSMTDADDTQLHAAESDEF
Description: Tumors of control and curcumin-treated mice were harvested exactly as described (Lee et al., 2011, BMC Cancer 11:144). Animal experiments were performed according to the NIH Guide for the Care and Use of Experimental Animals and approved by our Institutional Animal Care and Use Committee.
Cdc27 levels in the Smo/Smo mouse tumors were determined by immunoblot of Cdc27. Tubulin is shown for equal loading. The Cdc27 levels were reduced (FIG. 4) when compared with control mice.

[5] = tested on: Cdc27, cyclin B1, securin, cyclin D1, APC2, p55Cdc20; test: Immunoblotting of DAOY cells released from mitotic block; assay type: cell-based, human
Description: Cell lysates were prepared in a buffer containing 20 mM Tris (pH 7.5), 150 mM NaCl, 1 mM EDTA, 1 mM EGTA, 0.1% Triton X-100, 2.5 mM sodium pyrophosphate, 1 mM β-glycerol phosphate, 1 mM sodium vanadate, 1 mM phenylmethylsulfonyl fluoride and 5 μg/ml of antipapain, leupeptin and pepstatin (protease inhibitor cocktail). Protein concentrations were determined by the Dc protein assay (Bio-Rad, Hercules, Calif.). Equal amounts of protein were resolved by SDS-PAGE and transferred to nitrocellulose. The membranes were blocked in 5% non-fat milk in Tris-buffered saline with 0.1% […] (TBST). Primary antibodies diluted in 5% bovine serum albumin/TBST were incubated overnight at 4° C. and HRP-conjugated secondary antibodies in 5% non-fat milk/TBST for 2 hours at room temperature. Protein bands were visualized by Enhanced Chemiluminescence Plus (GE Healthcare, Piscataway, N.J.).

[6] = target: T4, APC/C (Homo sapiens, UniProt P30260); test: In vitro APC assay (ubiquitin ligase activity on cyclin B); assay type: biochemical; details: DAOY released from G2/M block with 20 μM or 40 μM curcumin; two hours vs one hour of release
T4 construct: Cell pellets of control and curcumin-treated DAOY cells were snap frozen in liquid nitrogen; endogenous in cells; host or cells: DAOY cell lysate, 30 μg total protein
Description: In vitro APC assays were performed as described (Rajasekaran et al., Molecular Cancer Therapeutics 7(7); 2142-2151 (2008) using an in vitro transcribed and translated N-terminal fragment of cyclin B1 (cyclin B1-N1-102) as substrate, ^35S-methionine labeled cyclin B1-N1-102 was obtained using the TNT quick-coupled Transcription/Translation system (Promega, Madison, Wis.). Cell pellets of control and curcumin-treated DAOY cells were snap frozen in liquid nitrogen. The cell pellets were resuspended in an ice-cold hypotonic buffer (20 mM Hepes pH 7.6, 20 mM NaF, 1.5 mM MgCl2, 1 mM DTT, 5 mM KCl, 20 mM β-glycerophosphate, 250 μM NaVO3, 1 mM PMSF, and EDTA-free protease inhibitors) and incubated for 30 minutes on ice. The lysates were briefly homogenized and cleared by a 1 hour centrifugation at 13,000 rpm in a micro centrifuge. For the assay, 30 μg of total protein were added to reaction buffer containing 20 mM Tris pH 7.5, 20 mM NaCl, 5 mM MgCl2, 5 mM ATP-γ-S, 20 μg/ml MG-132, 0.5 μg UbcH10, 20 μM ubiquitin, 1 μm ubiquitin aldehyde, protease inhibitor, and 2 μl of in vitro translated ^35S-cyclin B1-N1-102 and incubated at 37° C. for 60 minutes. The reactions were stopped by adding sample buffer and proteins were separated by SDS-PAGE on a 4-15% gradient gel. To visualize the bands, the gel was incubated and enhanced with salicylate, dried, and then subjected to autoradiography. […]

T1 sequence (P13569 whole entry, species assumed): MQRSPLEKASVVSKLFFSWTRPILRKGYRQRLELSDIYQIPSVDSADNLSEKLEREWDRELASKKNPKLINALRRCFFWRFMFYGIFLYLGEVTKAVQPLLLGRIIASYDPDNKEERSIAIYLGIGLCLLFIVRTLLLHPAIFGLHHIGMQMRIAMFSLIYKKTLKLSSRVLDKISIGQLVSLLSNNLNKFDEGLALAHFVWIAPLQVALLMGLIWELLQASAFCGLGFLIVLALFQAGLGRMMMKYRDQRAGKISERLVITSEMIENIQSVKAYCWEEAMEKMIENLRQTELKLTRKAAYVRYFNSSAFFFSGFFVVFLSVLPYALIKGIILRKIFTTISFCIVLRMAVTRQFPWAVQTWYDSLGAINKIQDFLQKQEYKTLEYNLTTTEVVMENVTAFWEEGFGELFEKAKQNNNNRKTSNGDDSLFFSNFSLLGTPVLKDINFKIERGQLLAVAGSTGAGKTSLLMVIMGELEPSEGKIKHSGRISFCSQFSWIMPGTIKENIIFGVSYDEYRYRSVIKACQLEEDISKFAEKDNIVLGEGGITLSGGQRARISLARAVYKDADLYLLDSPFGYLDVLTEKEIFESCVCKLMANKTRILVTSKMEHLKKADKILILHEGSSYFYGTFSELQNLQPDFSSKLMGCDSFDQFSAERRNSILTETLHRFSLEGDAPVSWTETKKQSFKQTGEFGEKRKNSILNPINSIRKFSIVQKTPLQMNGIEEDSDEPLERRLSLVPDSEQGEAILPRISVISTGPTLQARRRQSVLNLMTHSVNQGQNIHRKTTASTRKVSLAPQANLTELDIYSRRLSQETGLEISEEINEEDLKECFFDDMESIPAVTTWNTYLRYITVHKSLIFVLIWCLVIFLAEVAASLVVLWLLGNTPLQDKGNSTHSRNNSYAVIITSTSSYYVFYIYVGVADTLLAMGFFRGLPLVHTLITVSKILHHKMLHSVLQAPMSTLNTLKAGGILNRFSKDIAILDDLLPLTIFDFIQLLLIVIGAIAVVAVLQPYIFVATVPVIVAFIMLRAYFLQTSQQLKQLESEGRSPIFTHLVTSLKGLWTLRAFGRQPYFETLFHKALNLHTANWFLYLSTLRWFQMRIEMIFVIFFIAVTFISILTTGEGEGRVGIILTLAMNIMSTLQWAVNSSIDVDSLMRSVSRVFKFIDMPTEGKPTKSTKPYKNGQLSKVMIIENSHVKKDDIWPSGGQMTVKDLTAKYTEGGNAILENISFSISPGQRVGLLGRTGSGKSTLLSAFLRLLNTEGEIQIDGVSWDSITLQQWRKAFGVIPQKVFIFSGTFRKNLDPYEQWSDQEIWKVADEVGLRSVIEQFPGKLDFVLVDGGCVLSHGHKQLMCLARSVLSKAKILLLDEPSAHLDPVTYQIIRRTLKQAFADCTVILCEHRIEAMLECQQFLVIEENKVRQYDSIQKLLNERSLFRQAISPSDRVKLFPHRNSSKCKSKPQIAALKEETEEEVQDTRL

COc1cc(/C=C/C(=O)CC(=O)/C=C/c2ccc(O)c(OC)c2)ccc1O [Curcumin, (E,E)-1,7-bis(4-hydroxy-3-methoxyphenyl)-1,6-heptadiene-3,5-dion]
crosslinking of CFTR polypeptides [1]: can crosslink CFTR polypeptides into SDS-resistant oligomers | Cdc27 association with the APC/C subunits APC2 and APC8 [2]: not affected | p55Cdc20 association with Cdc27 ([2]; compared to control cells): dramatically reduced | mitotic progression after release from mitotic block [3]: selectively blocks mitotic progression in different cell lines with phosphorylated APC3/Cdc27 | Cdc27 levels in Smo/Smo mouse tumors [4]: reduced | dephosphorylation of Cdc27 over time after release of the mitotic block ([5]; 20 and 40 μM curcumin vs DMSO): not observed | decreases in the cyclin B1 and securin levels after release of the mitotic block ([5]; 20 and 40 μM curcumin vs control): not found | levels of APC2, p55Cdc20 or cyclin D1 ([5]; control vs curcumin-treated cells): no significant differences | APC activity [6]: reduced
